Reference: ChEMBL document CHEMBL5528043, “Development of Potent Mcl-1 Inhibitors: Structural Investigations on Macrocycles Originating from a DNA-Encoded Chemical Library Screen” (J Med Chem, 2024)
In brackets after ≈: the same amount, converted by molar mass.

Key:
[1] = target: Induced myeloid leukemia cell differentiation protein Mcl-1 (Homo sapiens, UniProt Q07820); assay: Inhibition of Mcl-1 (172-327) (unknown origin) using BIOTIN-AHXGQVGRQLAIIGDDINR-amide peptide by TR-FRET based BAK peptide displacement assay
Chain of Induced myeloid leukemia cell differentiation protein Mcl-1 (Q07820 whole entry): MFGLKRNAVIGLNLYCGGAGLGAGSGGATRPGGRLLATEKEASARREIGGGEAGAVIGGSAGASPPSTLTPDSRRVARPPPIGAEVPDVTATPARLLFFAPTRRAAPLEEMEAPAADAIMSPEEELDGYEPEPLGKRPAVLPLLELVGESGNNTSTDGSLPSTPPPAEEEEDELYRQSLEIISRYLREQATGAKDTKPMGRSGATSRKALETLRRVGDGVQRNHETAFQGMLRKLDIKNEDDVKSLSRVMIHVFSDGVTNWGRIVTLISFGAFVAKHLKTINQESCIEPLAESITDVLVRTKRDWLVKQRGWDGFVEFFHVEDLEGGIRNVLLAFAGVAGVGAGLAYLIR

[2] = Kinetic solubility of the compound in pH 7.4 buffer measured after 24 hrs by LC-UV analysis; type: physicochemical; settings: read-out: Kinetic_solubility
[3] = Passive permeability of compound at pH 7.4 incubated for 4 hrs by PAMPA assay; type: ADME; settings: read-out: permeability
NCI-H929 [4] = assay: Cytotoxicity against human NCI-H929 cells assessed as […] by measuring caspase 3/7 activity measured after 6 hrs by luminescence assay; type: functional, cell-based; settings: NCI-H929, 6 h
Bcl-2-like protein 1 = Bcl-2-like protein 1 (Homo sapiens, UniProt Q07817); assay: Inhibition of Bcl-xl (1-212) (unknown origin) using BIOTIN-AHXAHXGQVGRQLAIIGDDINR-amide peptide by TR-FRET based BAK peptide displacement assay
Chain of Bcl-2-like protein 1 (Q07817 whole entry): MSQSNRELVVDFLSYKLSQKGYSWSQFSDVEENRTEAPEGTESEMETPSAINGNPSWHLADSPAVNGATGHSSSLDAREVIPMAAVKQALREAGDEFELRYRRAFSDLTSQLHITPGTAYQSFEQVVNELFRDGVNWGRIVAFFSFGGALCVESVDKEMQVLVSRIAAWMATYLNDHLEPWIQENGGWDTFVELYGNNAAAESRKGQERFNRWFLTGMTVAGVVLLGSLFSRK

[5] = Metabolic stability in mouse liver S9 fraction assessed as intrinsic clearance; type: ADME, subcellular; settings: read-out: CLH
[6] = Metabolic stability in rat liver S9 fraction assessed as intrinsic clearance; type: ADME, subcellular; settings: read-out: CLH
[7] = Metabolic stability in human liver S9 fraction assessed as intrinsic clearance; type: ADME, subcellular; settings: for microsomal CLint: liver S9 fraction, read-out: CLH
[8] = Metabolic stability in mouse liver S9 fraction assessed as half life; type: ADME, subcellular
[9] = Metabolic stability in rat liver S9 fraction assessed as half life; type: ADME, subcellular
[10] = Metabolic stability in human liver S9 fraction assessed as half life; type: ADME, subcellular; settings: for half-life: liver S9 fraction
NCI-H929 [11] = assay: Cytotoxicity against human NCI-H929 cells assessed as cell viability measured after 72 hrs incubation by CellTiterGlo assay; type: functional, cell-based; settings: NCI-H929, 72 h

Structure (SMILES)	IC50 [1] [nM]	solubility kinetic at 24 h [2] [µM]	Papp at 4 h [3] [×10⁻⁶ cm/s]	IC50 (NCI-H929 [4]) [nM]	IC50 (Bcl-2-like protein 1) [nM]	microsomal CLint [5] [µL/min/mg]	microsomal CLint [6] [µL/min/mg]	CLH ([7]; s9) [µL/min/mg]	half-life [8] [min]	half-life [9] [min]	t1/2 ([10]; s9) [min]	IC50 (NCI-H929 [11]) [nM]	microsomal CLint [7] [µL/min/mg]	half-life [10] [min]
CCOc1cc(Oc2cc(C)c(Cl)c(C)c2)cc2c1OCC(=O)N[C@H]1CC[C@H](CC1)CC(=O)N[C@@H](c1ccccc1)C(=O)N[C@H](Cc1ccccc1)C(=O)N[C@H](C(=O)O)Cc1ccc(cc1)NC2	5700	> 80	< 1	1100										
CCOc1cc(Oc2cc(C)c(Cl)c(C)c2)cc2c1OCC(=O)N[C@H]1CC[C@H](CC1)CC(=O)N[C@@H](c1ccccc1)C(=O)N1CCC[C@@H]1C(=O)NCCc1ccc(cc1)OC2	18000	< 2	7.3	540										
CCOc1cccc2c1OCC(=O)N[C@H]1CC[C@H](CC1)CC(=O)N[C@@H](c1ccccc1)C(=O)N[C@H](Cc1ccccc1)C(=O)N[C@H](C(=O)NC)Cc1ccc(cc1)NC2	80	< 2			> 10000	35	18	17	20	39	17			
CCOc1cc(Oc2cc(C)c(Cl)c(C)c2)cc2c1OCC(=O)N[C@H]1CC[C@H](CC1)CC(=O)N[C@@H](CC(C)C)C(=O)N[C@H](Cc1cccnc1)C(=O)N[C@@H](C(=O)O)Cc1ccc(cc1)OC2	16000	11 (≈ 10.2 µg/mL)	1.5	410										
CCOc1cc(Oc2cc(C)c(Cl)c(C)c2)cc2c1OCC(=O)N[C@H]1CC[C@H](CC1)CC(=O)N[C@@H](c1ccccc1)C(=O)N[C@H](Cc1ccccc1)C(=O)NCCc1ccc(cc1)OC2	1500	< 2		60	> 10000							41		
CCOc1cccc2c1OCC(=O)N[C@H]1CC[C@H](CC1)CC(=O)N[C@@H](c1ccccc1)C(=O)N[C@H](Cc1ccccc1)C(=O)N[C@H](C(=O)NC)Cc1ccc(cc1)OC2	50	< 2			> 10000	36	15		19	47			19	37
CCOc1cccc2c1OCC(=O)N[C@H]1CC[C@H](CC1)CC(=O)N[C@@H](c1ccccc1)C(=O)N[C@H](Cc1ccccc1)C(=O)NCCc1ccc(cc1)OC2	130	< 2			> 10000	41	30		17	23		> 10000	82	8
CCOc1cc(Oc2cc(C)c(Cl)c(C)c2)cc2c1OCC(=O)N[C@H]1CC[C@H](CC1)CC(=O)N[C@@H](c1ccccc1)C(=O)N[C@H](Cc1cccnc1)C(=O)NCCc1ccc(cc1)OC2	14000	< 2	5.5	45										
CCOc1cc(Oc2cc(C)c(Cl)c(C)c2)cc2c1OCC(=O)N[C@H]1CC[C@H](CC1)CC(=O)N[C@@H](c1ccccc1)C(=O)N[C@H](Cc1ccncc1)C(=O)NCCc1ccc(cc1)OC2	5300	< 2	< 1	35										
CCOc1cc(Oc2cc(C)cc(C)c2)cc2c1OCC(=O)N[C@H]1CC[C@H](CC1)CC(=O)N[C@@H](c1ccccc1)C(=O)N[C@H](Cc1ccccc1)C(=O)N[C@H](C(=O)O)Cc1ccc(cc1)NC2	7700	> 80	2	630										
CCOc1cc(Oc2cc(C)c(Cl)c(C)c2)cc2c1OCC(=O)N[C@H]1CC[C@H](CC1)CC(=O)N[C@@H](c1ccccc1)C(=O)N[C@H](Cc1cccnc1)C(=O)N[C@H](C(=O)O)Cc1ccc(cc1)OC2	13000	> 80	3.9	480										
CCOc1cc(Oc2cc(C)c(Cl)c(C)c2)cc2c1OCC(=O)N[C@H]1CC[C@H](CC1)CC(=O)N[C@@H](CC(C)C)C(=O)N[C@H](Cc1cccnc1)C(=O)N[C@H](C(=O)O)Cc1ccc(cc1)OC2	31000	> 80	5.3	1100										
CCOc1cc(Oc2cc(C)cc(C)c2)cc2c1OCC(=O)N[C@H]1CC[C@H](CC1)CC(=O)N[C@@H](c1ccccc1)C(=O)N[C@H](Cc1ccccc1)C(=O)NCCc1ccc(cc1)OC2	1600				> 10000							56		
